One series concerns FVB/N mice. The series is described as follows: Adverse effects and toxicity in normal mice. The class given is in vivo, mouse. To be noted: oral gavage 50 and 100 mg/kg body, 7 days. The procedure: Adverse effects and toxicity to the normal cells are the most challenging part of the anticancer drug development process. […] The body weight and any side effects of contraindication monitored during the period.
Control mice received PBS. After one weak of drug administration, mouse weight was measured every day for 7 days. We used 3 mice in each group. (A) Body weight changes in control mice (B and C) Body weight changes in CMC1 (50 and 100 mg/kg body). (D and E) Body weight changes in CMC1 (50 and 100 mg/kg body) Computational Studies: […]

A further series has as its system MDA-MB231 (MB231) cells. The series is described as follows: MTT cell proliferation assay, MB231 cells. The series is classed as cell-based, human. The method, then: (§1) We tested the antitumor potential of All the synthesized six DCA-curcumin hybrid conjugates (CMC 1-CMC 6) with two different human breast cancer cell lines [T47D, an ER-positive BC cell line and MDA-MB231 (MB231), a triple-receptor negative BC (TNBC) cell line] using the colorimetric MTT (3-(4,5-dimethylthiazol-2yl)-2,5-diphenyltetrazolium bromide) cell proliferation assay kit.
(§2) […] and MB231 cells (5×10^3) were seed in 96-well plates and left them in the cell culture incubator at 37° C. with 5% CO2 in DMEM and RPMI medium (100 μl), respectively. After 24 h, the medium was replaced with the CMC compounds at different concentrations (0, 1, 5, and 10 μM) for 72 h. After 72 h, 10 μl Reliablue reagent was added to each well and incubated for 2 h for the formation of purple formazan and then added 100 μl of detergent to dissociate the formazan precipitate and measured at 570 nm. Values are shown as mean±SEM of three experiments with 6 wells in each, a total of 18 repeats.
In general terms: Tetrazolium dyes change colour on reduction, which living cells bring about.

Another series concerns T47D cells. The series is described as follows: MTT cell proliferation assay, T47D cells. The series is classed as cell-based, human. To be noted: 72 h. The method, then:
as §1, §2

The next series relates to MMTV-PyMT-Tg mice. Description: Tumor growth in genetically engineered mouse (GEM) model of breast cancer. The class given is in vivo. To be noted: 10 mg/kg body, three times a week by oral gavage for 7 weeks. The procedure:
The antitumor potential of one of the most potential CMC compound, CMC2, in genetically engineered mouse (GEM) model of breast cancer, MMTV-PyMT-Tg mice was tested. The MMTV-PyMT-Tg mouse was mainly chosen because the tumor formation and progression in this mouse is characterized by four different stages (hyperplasia, adenoma/mammary intra-epithelial neoplasia, early and late carcinoma) and also mimics human breast cancer, the tumor develops first as ER-positive (ER^+) but ultimately becomes ER-negative BC (ER^− BC).
It was randomly assigned 6-week-old MMTV-PyMT-Tg mice into two groups (3 mice in each); one control and one CMC2 treated (10 mg/kg body, three times a week by oral gavage for 7 weeks). Tumor volume was measured twice a week and the volume was calculated using the formula V=L×W^2/2, where L represents the largest tumor diameter and W represents the smallest tumor diameter. After the experimental period, tumor tissues were collected, a picture was taken, and tumor weight was measured. Tissue sections were prepared from the tumor tissue and stained for Hematoxylin and Eosin (H & E) section and also stained for the Ki67 for cell proliferation. Tissue sections and H & E sections were prepared from the Augusta University Histology core facility.
Six-week-old MMTV-PyMT-Tg mice were treated with CMC2 (10 mg/kg body for 3× a week for 7 weeks. Control mice received PBS. Tumor volume was measured twice a week and calculated (A). After the experimental period, tumor size (B) and tumor weight (C) were also analyzed. Tissue sections were prepared and stained with H & E and Ki67 (D). Values are shown as mean±SD of three mice in each.

This note sets out measurements from patent publication US20260069699A1, “Hybrid Curcumin Conjugates And Methods Of Use Thereof” (AUGUSTA UNIVERSITY RESEARCH INSTITUTE, INC., priority 2020, published 2026).

As usually defined, the EC50 is the concentration that produces a half-maximal response. A higher EC50 goes with lower potency in that assay.

As for `COc1cc(/C=C/C(=O)/C=C(O)/C=C/c2ccc(OC(=O)C(Cl)Cl)c(OC)c2)ccc1OC(=O)C(Cl)Cl` [CMC 1], in the series on FVB/N mice, the “contraindication / side effects” value is “no contraindication” and the “mouse growth (body weight)” value was “normal”. In the series with MDA-MB231 (MB231) cells (Homo sapiens, MDA-MB-231, 72 h), the concentration for a half-maximal effect (EC50) turned out to be 424 nM.

In the series on T47D cells, `COc1cc(/C=C/C(=O)/C=C(O)/C=C/c2ccc(OC(=O)CNC(=O)C(Cl)Cl)c(OC)c2)ccc1OC(=O)CNC(=O)C(Cl)Cl` [CMC 2] came in with an EC50 of 1420 nM. In the series on MMTV-PyMT-Tg mice, the “tumor growth (tumor volume)” value is reported as “significantly reduced”, the tumor size result is listed as “significantly reduced” and the tumor weight result is “significantly reduced”. In the series with FVB/N mice, the “contraindication / side effects” value is recorded as “no contraindication” and the “mouse growth (body weight)” value is reported as “normal”. This molecule displayed a half-maximal effective concentration (EC50) in the series on MDA-MB231 (MB231) cells (72 h) of 778 nM.

As to `COc1cc(/C=C/C(=O)/C=C(O)/C=C/c2ccc(OC(=O)[C@H](C)NC(=O)C(Cl)Cl)c(OC)c2)ccc1OC(=O)[C@H](C)NC(=O)C(Cl)Cl` [CMC 3], the 50% effective concentration (EC50) in the series on T47D cells is 1600 nM; in the series with MDA-MB231 (MB231) cells (72 h), 518 nM.

`COc1cc(/C=C/C(=O)/C=C(O)/C=C/c2ccc(OC(=O)CCNC(=O)C(Cl)Cl)c(OC)c2)ccc1OC(=O)CCNC(=O)C(Cl)Cl` [CMC 4]: the EC50 was determined as 1260 nM in the series with T47D cells and 1130 nM with MDA-MB231 (MB231) cells (72 h).

As to `COc1cc(/C=C/C(=O)/C=C(O)/C=C/c2ccc(OC(=O)[C@H](Cc3ccccc3)NC(=O)C(Cl)Cl)c(OC)c2)ccc1OC(=O)[C@H](Cc1ccccc1)NC(=O)C(Cl)Cl` [CMC 5], the values for the EC50 in the series with T47D cells and in the series on MDA-MB231 (MB231) cells (72 h) were 1240 nM and 838 nM, respectively.

For the molecule `COc1cc(/C=C/C(=O)/C=C(O)/C=C/c2ccc(OC(=O)CCCNC(=O)C(Cl)Cl)c(OC)c2)ccc1OC(=O)CCCNC(=O)C(Cl)Cl` [CMC 6], the EC50 with T47D cells worked out at 1370 nM; in the series with MDA-MB231 (MB231) cells (72 h), 942 nM.
